Measured values published in patent US7312237B2, “Combination of epothilone analogs and chemotherapeutic agents for the treatment of prolilferative diseases” (Bristol-Myers Squibb Co., priority 2001, dated 2007).
pIC50: −log10 of the molar value.

Experiments:
HCT116/VM46 = experiment: In vitro cytotoxicity (MTS assay), HCT116/VM46; assay type: cell-based, human
MIP = experiment: In vitro cytotoxicity (MTS assay), MIP; assay type: cell-based; conditions: 72 h
Description: (§1) The in vitro cytotoxicity was assessed in tumor cells by a tetrazolium-based colorimetric assay which takes advantage of the metabolic conversion of MTS (3-(4,5-dimethylthiazol-2-yl)-5-(3-carboxymethoxyphenyl)-2-(4-sulphenyl)-2H-tetrazolium, inner salt) to a reduced form that absorbs light at 492 nm. Cells were seeded 24 hr prior to drug addition. Following a 72 hour incubation at 37° C. with serially diluted compound, MTS, in combination with the electron coupling agent phenazine methosulfate, was added to the cells. The incubation was continued for 3 hours, then the absorbancy of the medium at 492 nm was measured with a spectrophotometer to obtain the number of surviving cells relative to control populations. The results are expressed as median cytotoxic concentrations (IC50 values).

[1] = test system: panel of tumor cell lines; experiment: Oncology Diverse Cell Assay, panel of 21 cell lines; assay type: cell-based; conditions: 18 of the 21 cell lines tested
Description: Bar graphs, on the right, depict the IC50 values of the cell lines listed on the left hand column (top to bottom).
as §1

HCT116 cells = experiment: Mitotic blockade (cell cycle progression); assay type: cell-based, human; conditions: 7.5 nM, 8 hours
[2] = test system: HCT116 human colon carcinoma cell line; experiment: Clonogenic cell colony-formation assay (single agent and combination, isobologram); assay type: cell-based; conditions: concentration killing clonogenic HCT-116 cells by 90%
Excerpt: Analysis of the effects of combination treatment in vitro was by the isobologram and multiplicity methods described by Stephens and Steel
The success of an anticancer agent is dependent not only on its antitumor activity as a single agent but also on its ability to combine successfully with other antineoplastic drugs.

[3] = test system: Pat-7 human ovarian carcinoma; experiment: In vivo antitumor testing, Pat-7 in nude mice
Description: (§2) All tumor implants for efficacy testing were subcutaneous (sc).
(§3) The MTD was frequently equivalent to OD. When death occurs, the day of death was recorded.
(§4) And, Log cell kill=T−C÷(3.32×TVDT)
This tumor model was established from a tumor biopsy of an ovarian cancer patient (Pat-7), who was initially responsive to TAXOL® treatment but ultimately developed resistance to it following nine courses of monotherapy with TAXOL®. Prior to treatment with TAXOL®, Pat-7 also received numerous other chemotherapeutic agents including carboplatin, cytoxan, VP-16, ifosfamide and altretamine. Tumor biopsy was taken following development of TAXOL® resistance.

[4] = In vivo antitumor testing, Pat-7 in nude rats; conditions: nude, rat, in vivo, iv; read-out: OD (optimal dose or MTD)
Description: as §3, §4

[5] = test system: Pat-7 human ovarian carcinoma; experiment: In vivo antitumor testing, Pat-7 in nude rats; conditions: Expt. 15, nude rats, IV q8dx2, OD 3 mg/kg
Description: as §3, §4

[6] = test system: A2780Tax human ovarian carcinoma; conditions: Expt. 12, IV q2dx5, OD 6.3 mg/kg
Excerpt: The following human tumors were used: A2780 ovarian, A2780Tax ovarian (established from cells obtained from Dr. Antonio Fojo, Medicine Branch, NCI, Bethesda, Md.), HCT116/VM46 colon, Pat-7 ovarian (established from a tumor biopsy provided by Dr. Thomas Hamilton, Fox Chase Cancer Center, Philadelphia, Pa.) from a patient who had developed resistance to TAXOL®). The murine fibrosarcoma M5076 was also employed.
The following tumors were passaged in the indicated host strain of mouse: murine M5076 fibrosarcoma (M5076) in C57Bl/6 mice; human A2780 and Pat-7 ovarian carcinomas, HCT116, HCT116/VM46 and LS174T colon carcinoma, Pat-21 breast carcinoma in nude mice. Tumor passage occurred biweekly for murine tumors and approximately every two to eight weeks for the various human tumor lines. With regard to efficacy testing, M5076 tumors were implanted in (C57Bl/6×DBA/2)F1 hybrid mice, and human tumors were implanted in nude mice. All tumor implants for efficacy testing were subcutaneous (sc). […]
Antitumor activity was evaluated at the maximum tolerated dose (MTD) which is defined as the dose level immediately […] which excessive toxicity (i.e. more than one death) occurred. […] When death occurs, the day of death was recorded. […]
To estimate tumor cell kill, the tumor volume doubling time was first calculated with the formula: […]

[7] = In vivo antitumor testing, A2780 in nude mice; conditions: nude, mouse, in vivo, iv, Compound 1 IV, read-out: OD (optimal dose or MTD)
Description: as §2, §3, §4

[8] = test system: A2780 human ovarian carcinoma; experiment: In vivo antitumor testing, A2780 in nude mice
Description: as §2, §3, §4

[9] = In vivo antitumor testing, LS174T xenograft; design: species or system nude mice; conditions: nude, mouse, in vivo, iv; read-out: OD (optimal dose or MTD)
Description: as §2, §3, §4

[10] = test system: LS174T human colon carcinoma; experiment: In vivo antitumor testing, LS174T xenograft; design: species or system nude mice; conditions: Expt. R578, IV q4dx3, OD 16 mg/kg
Description: as §2, §3, §4

[11] = Stability as a function of pH; assay type: physicochemical; conditions: neutral pH versus low pH
[12] = Expt. 89, IV q2dx5, OD 6.3 mg/kg
[13] = Expt. 115, IV q2dx5, OD 6.3 mg/kg
[14] = Expt. 115, IV q4dx3, OD 16 mg/kg

For `C/C(=C\c1csc(C)n1)[C@@H]1C[C@@H]2O[C@]2(C)CCC[C@H](C)[C@H](O)[C@@H](C)C(=O)C(C)(C)[C@@H](O)CC(=O)N1` (relative stereo) [Compound 1, [1S-[1R*,3R*(E),7R*,10S*,11R*,12R*,16S*]]-7,11-dihydroxy-8,8,10,12,16-pentamethyl-3-[1-methyl-2-(2-methyl-4-thiazolyl)ethenyl]-4-aza-17-oxabicyclo[14.1.0] heptadecane-5,9-dione], the pIC50 (HCT116/VM46; Homo sapiens, HCT-116/VM46, HCT116/VM46 (MDR), 72 hour incubation) was 7.61, the “resistance ratio (R/S)” value (HCT116/VM46; IC50 HCT116/VM46 versus sensitive HCT116) was 9.4 and the pIC50 (MIP) was 7.61. For the same molecule, the pIC50 [1] was 8.22 to 8.85, the “block of cells in mitosis” value (HCT116 cells) was “almost completely blocks cells in mitosis” and the IC90 [2] was roughly 7.5 nM. For the same molecule, the “OD (optimal dose or maximum tolerated dose, MTD)” value ([3]; Compound 1 IV, q2dx5) was 6.3 mg/kg, the “OD (optimal dose or MTD)” value ([3]; Compound 1 PO, q2dx5) was 80 mg/kg and the “LCK (gross log cell kill)” value ([3]; Expt. 8, IV q2dx5, OD 6.3 mg/kg) was 4.5. For the same molecule, the “LCK (gross log cell kill)” value ([3]; Expt. 8, PO q2dx5, OD 60 mg/kg) was 3.1, the “LCK (gross log cell kill)” value ([3]; Expt. 9, PO q2dx5, OD 80 mg/kg) was 2.5 and the “LCK (gross log cell kill)” value ([3]; Expt. 12, IV q2dx5, OD 6.3 mg/kg) was 2.1. For the same molecule, the “LCK (gross log cell kill)” value ([3]; Expt. 12, IV q4dx3, OD 15 mg/kg) was 1.7, the “LCK (gross log cell kill)” value ([3]; Expt. R403, IV q2dx5, OD 4.8 mg/kg) was 2.1 and the MTD [4] was 3 mg/kg. The “LCK (gross log cell kill)” value [5] was greater than 5, the cures/total [5] was 4 of 6 and (4/6) and the “LCK (gross log cell kill)” value [6] was 2.5. For the same molecule, the MTD ([7]; q2dx5) was 6.3 mg/kg, the MTD ([7]; q4dx3) was 16 mg/kg and the “OD (optimal dose or MTD)” value ([8]; Compound 1 IV, q2dx5) was 4.8 mg/kg. For the same molecule, the “LCK (gross log cell kill)” value [8, 12] was greater than 4.8, the cures/total [8, 12] was 3/7 and the “LCK (gross log cell kill)” value ([8]; Expt. 92, IV q2dx5, OD 6.3 mg/kg) was 2. For the same molecule, the “LCK (gross log cell kill)” value ([8]; Expt. 111, IV q2dx5, OD 4.8 mg/kg) was 3.1, the “LCK (gross log cell kill)” value [8, 13] was 2.4 and the cures/total [8, 13] was 0/8. For the same molecule, the “LCK (gross log cell kill)” value [8, 14] was greater than 5.3, the cures/total [8, 14] was 3/7 and the MTD [9] was 16 mg/kg. The “LCK (gross log cell kill)” value [10] was 2.3 and the “stability versus pH” value [11] was “significantly more stable at neutral pH than at low pH”.
